#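 Five compound concentrations were applied to cells in 96-well plates for 48 hours; endpoints were derived by simple linear interpolation of the resulting dose-response curve. The concentration for 50% growth inhibition is given as GI50.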 Calls of active or inactive are those of the source. No stated cut-off is given here; in the data, active = GI50 up to about 1.1 µM and inactive = higher.
# Tests used:
# Experiment in all cases: NCI anticancer screen, dose series, 48 h
# [1] = system: HT-29
# [2] = system: HCT-15
# [3] = system: LOX IMVI
# [4] = system: UACC-257
# [5] = system: OVCAR-8
# [6] = system: COLO 205
# [7] = system: SNB-19
# [8] = system: EKVX
# [9] = system: HCC 2998
# [10] = system: K562
# [11] = system: SW-620
# [12] = system: MOLT-4
# [13] = system: A549
# [14] = system: SF-539
# [15] = system: ACHN
# [16] = system: SK-OV-3
# [17] = system: SR
# [18] = system: RXF 393
# [19] = system: SN12C
# [20] = system: 786-0
# [21] = system: CCRF-CEM
# [22] = system: RPMI-8226
# [23] = system: M14
# [24] = system: T47D
# [25] = system: SF-268
# [26] = system: TK-10
# [27] = system: HL-60
# [28] = system: SK-MEL-28
# [29] = system: OVCAR-5
# [30] = system: NCI/ADR-RES
# [31] = system: MDA-N
# [32] = system: SK-MEL-2
# [33] = system: U-251
# [34] = system: NCI-H23
# [35] = system: PC-3
# [36] = system: IGROV-1
# [37] = system: SK-MEL-5
# [38] = system: Hs-578T
# [39] = system: BT-549
# [40] = system: UO-31
# [41] = system: HCT-116
# [42] = system: MDA-MB-435
# [43] = system: SNB-75
# [44] = system: CAKI-1
# [45] = system: A498
# [46] = system: OVCAR-3
# [47] = system: Malme-3M
# [48] = system: KM12
# [49] = system: DU-145
# [50] = system: NCI-H226
# [51] = system: NCI-H460
# [52] = system: MCF7
# [53] = system: HOP-92
# [54] = system: MDA-MB-231
# [55] = system: HOP-62
# [56] = system: OVCAR-4
# [57] = system: UACC-62
smiles,measurement,setting,value
CCC1(COC(NC(=O)c2ccccc2)(C(F)(F)F)C(F)(F)F)COC1,GI50,[1],> 100 µM (inactive)
same,GI50,[2],> 100 µM
same,GI50,[3],> 100 µM (inactive)
same,GI50,[4],> 100 µM (inactive)
same,GI50,[5],> 100 µM (inactive)
same,GI50,[6],> 100 µM (inactive)
same,GI50,[7],> 100 µM (inactive)
same,GI50,[8],> 100 µM (inactive)
same,GI50,[9],> 100 µM (inactive)
same,GI50,[10],> 100 µM (inactive)
same,GI50,[11],> 100 µM (inactive)
same,GI50,[12],52.4 µM (inactive)
same,GI50,[13],> 100 µM (inactive)
same,GI50,[14],> 100 µM (inactive)
same,GI50,[15],65.6 µM (inactive)
same,GI50,[16],> 100 µM (inactive)
same,GI50,[17],> 100 µM (inactive)
same,GI50,[18],> 100 µM (inactive)
same,GI50,[19],> 100 µM (inactive)
same,GI50,[20],> 100 µM (inactive)
same,GI50,[21],> 100 µM (inactive)
same,GI50,[22],> 100 µM (inactive)
same,GI50,[23],> 100 µM (inactive)
same,GI50,[24],> 100 µM (inactive)
same,GI50,[25],> 100 µM (inactive)
same,GI50,[26],> 100 µM (inactive)
same,GI50,[27],> 100 µM (inactive)
same,GI50,[28],> 100 µM (inactive)
same,GI50,[29],> 100 µM (inactive)
same,GI50,[30],> 100 µM (inactive)
same,GI50,[31],> 100 µM (inactive)
same,GI50,[32],> 100 µM (inactive)
same,GI50,[33],> 100 µM (inactive)
same,GI50,[34],> 100 µM (inactive)
same,GI50,[35],> 100 µM (inactive)
same,GI50,[36],> 100 µM (inactive)
same,GI50,[37],> 100 µM (inactive)
same,GI50,[38],> 100 µM (inactive)
same,GI50,[39],> 100 µM (inactive)
same,GI50,[40],> 100 µM (inactive)
same,GI50,[41],> 100 µM (inactive)
same,GI50,[42],> 100 µM (inactive)
same,GI50,[43],> 100 µM (inactive)
same,GI50,[44],> 100 µM (inactive)
same,GI50,[45],> 100 µM (inactive)
Clc1ccccc1-c1nnc2c(-c3ccccc3)nc3ccccc3n12,GI50,[46],> 100 µM (inactive)
same,GI50,[1],47.3 µM (inactive)
same,GI50,[2],> 100 µM
same,GI50,[3],> 100 µM (inactive)
same,GI50,[4],> 100 µM (inactive)
same,GI50,[6],> 100 µM (inactive)
same,GI50,[7],> 100 µM (inactive)
same,GI50,[8],> 100 µM (inactive)
same,GI50,[9],> 100 µM (inactive)
same,GI50,[10],> 100 µM (inactive)
same,GI50,[11],> 100 µM (inactive)
same,GI50,[12],42.6 µM (inactive)
same,GI50,[13],> 100 µM (inactive)
same,GI50,[14],> 100 µM (inactive)
same,GI50,[15],> 100 µM (inactive)
same,GI50,[47],61.7 µM (inactive)
same,GI50,[16],> 100 µM (inactive)
same,GI50,[48],> 100 µM (inactive)
same,GI50,[17],45.2 µM (inactive)
same,GI50,[18],13 µM (inactive)
same,GI50,[19],> 100 µM (inactive)
same,GI50,[20],40.9 µM (inactive)
same,GI50,[49],> 100 µM (inactive)
same,GI50,[21],26 µM (inactive)
same,GI50,[22],> 100 µM (inactive)
same,GI50,[23],> 100 µM (inactive)
same,GI50,[50],> 100 µM (inactive)
same,GI50,[51],> 100 µM (inactive)
same,GI50,[52],92 µM (inactive)
same,GI50,[24],5.93 µM (inactive)
same,GI50,[53],> 100 µM (inactive)
same,GI50,[54],> 100 µM (inactive)
same,GI50,[55],69.3 µM (inactive)
same,GI50,[56],> 100 µM (inactive)
same,GI50,[25],> 100 µM (inactive)
same,GI50,[26],> 100 µM (inactive)
same,GI50,[27],54.5 µM (inactive)
same,GI50,[28],> 100 µM (inactive)
same,GI50,[29],> 100 µM (inactive)
same,GI50,[30],> 100 µM (inactive)
same,GI50,[31],96.6 µM (inactive)
same,GI50,[32],> 100 µM (inactive)
same,GI50,[33],> 100 µM (inactive)
same,GI50,[34],> 100 µM (inactive)
same,GI50,[35],> 100 µM (inactive)
same,GI50,[36],> 100 µM (inactive)
same,GI50,[37],> 100 µM (inactive)
same,GI50,[57],> 100 µM (inactive)
same,GI50,[39],> 100 µM (inactive)
same,GI50,[40],2.07 µM (inactive)
same,GI50,[41],> 100 µM (inactive)
same,GI50,[42],52.7 µM (inactive)
same,GI50,[45],> 100 µM (inactive)

# Reference: ChEMBL document CHEMBL1201862, “PubChem BioAssay data set” (2004)
